Drawing on US20240124408A1 (Sanofi, priority 2020, published 2024), this text covers EC50 for 20 molecules.

Counter-ions that a name gives are not always drawn. Bounds are passed on as bounds.

Holding throughout (assay type): cell-based
Assay [1] has as its target T1, pig TRPM8 (Sus scrofa, UniProt F1SM15).
T1 construct: expressed in transfected cells; host or cells: CHO (pcDNA5/FRT/TO vector; hygromycin B and blasticidin selection)
The assay is described as follows: In vitro pig TRPM8 fluorescence calcium flux assay (recombinant CHO cells, Fluo4-AM, FDSS6000). As to conditions: recombinant CHO cells expressing pig TRPM8; menthol-related EC50, normalized to 100 μM menthol. The essentials: (§1)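 CHO cells stably expressing pig or human TRPM8, loaded with 2 μM Fluo4-AM in HBSS/20 mM HEPES/0.1% BSA/2.5 mM probenecid for 1 h at RT. Intracellular calcium read kinetically for 3 min after compound addition. EC50 from sixteen-point curves, normalized to 100 μM menthol maximal response.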
A general note: Calcium flux is commonly read through the fluorescence of an indicator in the cells.

Assay [2] deals with T1, pig TRPM8. The assay is described as follows: In vitro pig TRPM8 automated patch-clamp assay (SyncroPatch 384PE, CHO cells). As to conditions: CHO cells expressing pig TRPM8, 28° C. The method, then: (§2) In Vitro Pig and Human TRPM8 Automated Patch-Clamp Assays
(§3) Automated whole-cell recordings of compound effects were performed on the SyncroPatch 384PE (Nanion Technologies, Munich, Germany) incorporated into a Biomek FX pipetting robot (Beckman Coulter, Jersey City, NJ, USA) using the same engineered CHO cell lines expressing human or pig TRPM8 channels. Data acquisition and analysis were performed with the proprietary software PatchControl 384 and DataControl 384, respectively (Nanion Technologies, Munich, Germany). All recordings were carried out using planar borosilicate glass patch clamp chips in a 384-microtiter plate format with patch hole resistances of 2-4 MO. For recordings, standard intracellular solution was used containing (in mM): 130 KF, 4 NaCl, 1 MgCl2, 0.5 CaCl2, 10 HEPES and 10 EGTA/KOH (pH 7.2) and standard extracellular solution contained in mM: 150 NaCl, 4 KCl, 0.5 CaCl2, 1 MgCl2 and 10 HEPES (pH 7.3).
(§4) Prior to the electrophysiological measurements, cells were harvested using Accutase (GIBCO, Fisher Scientific) and resuspended in warmed extracellular solution. The cell suspension was kept in the dedicated cell reservoir at 28° C. at a 1 million/ml cell density and shaken at 500 rounds per min (rpm). Experiments were performed at 28° C. throughout. Cells were distributed in high resistance 4-holes-per-well Nanion chips where they were caught on the patch holes by application of a −80 mbar pressure. The cell membrane was ruptured to obtain the whole-cell configuration with a pressure pulse of −250 mbar for 2 seconds. Voltage protocols were constructed using PatchControl 384. The cells were held at a holding potential of −60 mV and TRPM8 currents were recorded using a ramp protocol from −80 to +80 mV every 5 seconds before and after compound addition. Resulting currents were recorded at both −80 and +80 mV and current kinetics were exported and analyzed. From each plate, control wells with 200 μM menthol were recorded to validate the assay. One concentration of compound was applied to each of the other wells. For each concentration, compound response was determined by subtracting the baseline current recorded before compound addition from the maximum peak elicited currents obtained after compound addition. Then, each compound response was normalized to control condition without compound and maximum current (Emax) obtained for each compound. Nanion DataControl 384 software plotted current response for each compound concentration and was able to calculate an EC50 value for each active compound.

In assay [3] the target is T2, human TRPM8 (Homo sapiens, UniProt Q7Z2W7).
T2 construct: expressed in transfected cells; host or cells: CHO (p658 mammalian expression vector)
Kind of assay: In vitro human TRPM8 fluorescence calcium flux assay (recombinant CHO cells, Fluo4-AM, FDSS6000). As to conditions: recombinant CHO cells expressing human TRPM8; menthol-related EC50, normalized to 100 μM menthol. The gist of the method:
as §1

Assay [4] has as its target T2, human TRPM8. The assay is described as follows: In vitro human TRPM8 automated patch-clamp assay (SyncroPatch 384PE, CHO cells). As to conditions: CHO cells expressing human TRPM8, 28° C. The method, then: as §2, §3, §4

What is called EC50 is the concentration giving half of the maximal effect.

T2 sequence (Q7Z2W7 whole entry): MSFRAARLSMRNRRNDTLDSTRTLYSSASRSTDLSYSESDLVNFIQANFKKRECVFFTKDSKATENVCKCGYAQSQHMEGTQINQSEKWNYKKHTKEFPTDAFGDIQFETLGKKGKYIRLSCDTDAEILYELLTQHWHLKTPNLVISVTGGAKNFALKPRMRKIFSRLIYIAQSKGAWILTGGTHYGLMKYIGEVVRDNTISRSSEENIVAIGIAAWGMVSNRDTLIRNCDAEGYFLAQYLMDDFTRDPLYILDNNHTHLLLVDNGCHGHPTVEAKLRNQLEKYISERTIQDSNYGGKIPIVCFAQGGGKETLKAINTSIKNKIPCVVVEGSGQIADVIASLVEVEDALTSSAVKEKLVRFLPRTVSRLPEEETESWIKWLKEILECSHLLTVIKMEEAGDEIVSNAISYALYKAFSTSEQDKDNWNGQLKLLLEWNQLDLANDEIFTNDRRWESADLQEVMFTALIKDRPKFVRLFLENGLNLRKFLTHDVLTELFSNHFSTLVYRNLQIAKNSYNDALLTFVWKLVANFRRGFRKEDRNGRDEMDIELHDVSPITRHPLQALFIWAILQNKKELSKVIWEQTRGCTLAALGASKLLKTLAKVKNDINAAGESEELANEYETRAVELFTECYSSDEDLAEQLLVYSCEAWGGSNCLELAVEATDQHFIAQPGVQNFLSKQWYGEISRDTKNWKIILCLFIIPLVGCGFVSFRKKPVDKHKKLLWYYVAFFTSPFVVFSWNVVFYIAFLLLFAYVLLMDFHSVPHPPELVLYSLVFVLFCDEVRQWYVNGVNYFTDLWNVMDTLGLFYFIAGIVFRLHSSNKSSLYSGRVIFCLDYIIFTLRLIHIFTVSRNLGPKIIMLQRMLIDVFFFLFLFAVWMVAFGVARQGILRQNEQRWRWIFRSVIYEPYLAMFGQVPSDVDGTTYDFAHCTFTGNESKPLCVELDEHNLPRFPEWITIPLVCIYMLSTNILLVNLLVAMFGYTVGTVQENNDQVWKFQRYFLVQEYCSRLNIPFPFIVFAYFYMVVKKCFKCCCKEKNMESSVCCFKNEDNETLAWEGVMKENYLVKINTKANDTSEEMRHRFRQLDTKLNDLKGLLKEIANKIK
T1 sequence (F1SM15 1-1104): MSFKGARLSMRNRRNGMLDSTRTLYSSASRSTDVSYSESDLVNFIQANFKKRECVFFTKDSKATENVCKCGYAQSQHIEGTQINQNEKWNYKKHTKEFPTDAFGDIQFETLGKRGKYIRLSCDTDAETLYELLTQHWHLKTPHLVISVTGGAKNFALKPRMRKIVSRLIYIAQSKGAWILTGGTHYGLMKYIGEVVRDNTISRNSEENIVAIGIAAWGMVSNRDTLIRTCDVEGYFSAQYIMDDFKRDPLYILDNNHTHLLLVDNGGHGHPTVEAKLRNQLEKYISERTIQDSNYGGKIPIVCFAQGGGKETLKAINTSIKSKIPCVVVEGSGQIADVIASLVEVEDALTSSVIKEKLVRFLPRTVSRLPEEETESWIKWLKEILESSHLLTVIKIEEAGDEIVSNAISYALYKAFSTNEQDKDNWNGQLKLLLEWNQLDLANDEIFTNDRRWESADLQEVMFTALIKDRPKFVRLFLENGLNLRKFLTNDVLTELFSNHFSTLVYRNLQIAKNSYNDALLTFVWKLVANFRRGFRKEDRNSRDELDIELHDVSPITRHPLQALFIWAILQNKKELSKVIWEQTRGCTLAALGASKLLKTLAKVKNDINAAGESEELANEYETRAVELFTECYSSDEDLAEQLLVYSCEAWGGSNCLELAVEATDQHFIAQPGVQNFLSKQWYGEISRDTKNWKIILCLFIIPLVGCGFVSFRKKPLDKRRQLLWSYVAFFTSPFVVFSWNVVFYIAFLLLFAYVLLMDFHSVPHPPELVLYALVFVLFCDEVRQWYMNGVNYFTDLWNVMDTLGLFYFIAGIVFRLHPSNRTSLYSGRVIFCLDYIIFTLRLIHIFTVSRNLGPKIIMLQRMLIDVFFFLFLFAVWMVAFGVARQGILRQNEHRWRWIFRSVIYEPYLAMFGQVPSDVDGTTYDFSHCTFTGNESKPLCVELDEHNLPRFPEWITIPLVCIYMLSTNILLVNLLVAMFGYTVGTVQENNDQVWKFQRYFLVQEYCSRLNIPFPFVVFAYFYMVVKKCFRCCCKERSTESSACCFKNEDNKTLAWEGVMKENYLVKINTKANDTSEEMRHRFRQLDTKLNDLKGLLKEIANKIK

With `CC(C)[C@@H]1CC[C@@H](C)C[C@@]1(O)C(=O)NCC(C)(O)c1ccccc1` (stereo partly drawn) [Example 164, (1S,2S,5R)-1-hydroxy-N-(2-hydroxy-2-phenyl-propyl)-2-isopropyl-5-methyl-cyclohexanecarboxamide], the EC50 is 21.2 nM at pig TRPM8 [1], 1040 nM at pig TRPM8 [2], 34.3 nM at human TRPM8 [3] and 2200 nM at human TRPM8 [4].
Taken in the same sequence, the figures for `CC(C)[C@@H]1CC[C@@H](C)C[C@@]1(O)C(=O)NCC(CO)c1ccccc1` (stereo partly drawn) [Example 70, (1S,2S,5R)-1-hydroxy-N-(3-hydroxy-2-phenylpropyl)-2-isopropyl-5-methylcyclohexane-1-carboxamide] were 8 nM, 3740 nM, 9 nM and 3990 nM.
Taken in the same sequence, the figures for `CC(C)[C@@H]1CC[C@@H](C)C[C@@]1(O)C(=O)NCCc1ccccc1OCCN` [Example 6, (1S,2S,5R)—N-(2-(2-aminoethoxy)phenethyl)-1-hydroxy-2-isopropyl-5-methylcyclohexane-1-carboxamide] were 0.5 nM, 237 nM, 0.3 nM and 72 nM.
As to `CC(CNC(=O)[C@]1(O)C[C@H](C)CC[C@H]1C(C)C)c1ccccc1` (stereo partly drawn) [Example 156, (1S,2S,5R)-1-hydroxy-2-isopropyl-5-methyl-N-(2-phenylpropyl)cyclohexanecarboxamide], the EC50 was 21.5 nM at pig TRPM8 [1], 1900 nM on pig TRPM8 [2], 42.4 nM at human TRPM8 [3] and 1800 nM at human TRPM8 [4].
As to `CC(C)[C@@H]1CC[C@@H](C)C[C@@]1(O)C(=O)NCC(C(=O)OCCN)c1ccccc1` (stereo partly drawn) [Example 71, 2-aminoethyl 3-((1S,2S,5R)-1-hydroxy-2-isopropyl-5-methylcyclohexane-1-carboxamido)-2-phenylpropanoate hydrochloride], the half-maximal effective concentration (EC50) on pig TRPM8 [1] is 2 nM; at pig TRPM8 [2] it was 862 nM; on human TRPM8 [3], 1 nM; at human TRPM8 [4] it was 183 nM.
Take `CC(C)[C@@H]1CC[C@@H](C)C[C@@]1(O)C(=O)NCC(=O)c1ccc(O)cc1` [Example 143, (1S,2S,5R)-1-hydroxy-N-[2-(4-hydroxyphenyl)-2-oxo-ethyl]-2-isopropyl-5-methyl-cyclohexanecarboxamide]: the EC50 came out at 7.3 nM at pig TRPM8 [1], 985 nM at pig TRPM8 [2], 5.6 nM on human TRPM8 [3] and 1100 nM on human TRPM8 [4].
On the same counts, the results for `CC(C)[C@@H]1CC[C@@H](C)C[C@@]1(O)C(=O)NCC(=O)c1ccc(F)c(F)c1` [Example 136, (1S,2S,5R)-N-[2-(3,4-difluorophenyl)-2-oxo-ethyl]-1-hydroxy-2-isopropyl-5-methyl-cyclohexanecarboxamide] are 1.3 nM, 510 nM, 2.7 nM and 610 nM.
For the molecule `CC(C)[C@@H]1CC[C@@H](C)C[C@@]1(O)C(=O)NCC(=O)c1cccs1` [Example 149, (1S,2S,5R)-1-hydroxy-2-isopropyl-5-methyl-N-[2-oxo-2-(2-thienyl)ethyl]cyclohexanecarboxamide], the EC50 is 2 nM on pig TRPM8 [1], 1560 nM at pig TRPM8 [2], 6 nM on human TRPM8 [3] and 2300 nM on human TRPM8 [4].
Taken in the same sequence, the figures for `COc1cc(CO)ccc1OC(=O)CNC(=O)[C@]1(O)C[C@H](C)CC[C@H]1C(C)C` [Example 79, 4-(hydroxymethyl)-2-methoxyphenyl ((1S,2S,5R)-1-hydroxy-2-isopropyl-5-methylcyclohexane-1-carbonyl)glycinate] were 57.6 nM, 5160 nM, 84.5 nM and 5500 nM.
Taken in the same sequence, the figures for `Cc1cccc(CCNC(=O)[C@]2(O)C[C@H](C)CC[C@H]2C(C)C)c1` [Example 58, (1S,2S,5R)-1-hydroxy-2-isopropyl-5-methyl-N-(3-methylphenethyl)cyclohexane-1-carboxamide] were 2.2 nM, 887 nM, 5.2 nM and 1030 nM.
Turning to `CC(C)[C@@H]1CC[C@@H](C)C[C@@]1(O)C(=O)NCCc1cccc(CO)c1` [Example 15, (1S,2S,5R)-1-hydroxy-N-(3-(hydroxymethyl)phenethyl)-2-isopropyl-5-methylcyclohexane-1-carboxamide], the EC50 on pig TRPM8 [1] worked out at 2.1 nM; on pig TRPM8 [2], 1510 nM; at human TRPM8 [3], 3 nM; at human TRPM8 [4], 1430 nM.
On the same counts, the results for `CC(C)[C@@H]1CC[C@@H](C)C[C@@]1(O)C(=O)NCCc1cccnc1` [Example 124, (1S,2S,5R)-1-hydroxy-2-isopropyl-5-methyl-N-[2-(3-pyridyl)ethyl]cyclohexanecarboxamide] are 11.7 nM, 6760 nM, 36.6 nM and 6500 nM.
On to `COC(=O)CO[C@H](CNC(=O)[C@]1(O)C[C@H](C)CC[C@H]1C(C)C)c1ccccc1` [Example 57, methyl 2-((S)-2-((1S,2S,5R)-1-hydroxy-2-isopropyl-5-methylcyclohexane-1-carboxamido)-1-phenylethoxy)acetate], for which the concentration giving a half-maximal response (EC50) on pig TRPM8 [1] is 219 nM; on pig TRPM8 [2], greater than 10000 nM; on human TRPM8 [3] it was 254 nM.
Regarding `COc1ccc(NC(=O)[C@]2(O)C[C@H](C)CC[C@H]2C(C)C)cc1` [Example 174, (1S,2S,5R)-1-hydroxy-N-(4-methoxyphenyl)-5-methyl-2-propan-2-ylcyclohexane-1-carboxamide], the EC50 at pig TRPM8 [1] was 33.4 nM; at pig TRPM8 [2], 2170 nM; at human TRPM8 [3], 119 nM.
Taken in the same sequence, the figures for `COC(=O)c1ccccc1CCNC(=O)[C@]1(O)C[C@H](C)CC[C@H]1C(C)C` [Example 106, methyl 2-(2-((1S,2S,5R)-1-hydroxy-2-isopropyl-5-methylcyclohexane-1-carboxamido)ethyl)benzoate] were 23.2 nM, greater than 10000 nM and 29.3 nM.
On the same counts, the results for `CC(C)[C@@H]1CC[C@@H](C)C[C@@]1(O)C(=O)N[C@H](CCO)c1ccccc1` [Example 86, (1S,2S,5R)-1-hydroxy-N—((R)-3-hydroxy-1-phenylpropyl)-2-isopropyl-5-methylcyclohexane-1-carboxamide] are 749 nM, greater than 10000 nM and 547 nM.
`CC(C)[C@@H]1CC[C@@H](C)C[C@@]1(O)C(=O)NCC1COc2ccccc21` (stereo partly drawn) [Example 162, (1S,2S,5R)-N-(2,3-dihydrobenzofuran-3-ylmethyl)-1-hydroxy-2-isopropyl-5-methyl-cyclohexanecarboxamide]: the concentration giving a half-maximal response (EC50) worked out at 4 nM on pig TRPM8 [1], 1400 nM on pig TRPM8 [2] and 5.3 nM on human TRPM8 [3].
Taken in the same sequence, the figures for `CC(C)[C@@H]1CC[C@@H](C)C[C@@]1(O)C(=O)NCC(=O)NCc1ccccc1` [Example 30, (1S,2S,5R)—N-(2-(benzylamino)-2-oxoethyl)-1-hydroxy-2-isopropyl-5-methylcyclohexane-1-carboxamide] were 766 nM, greater than 10000 nM and 3250 nM.
On the same counts, the results for `CC(C)[C@@H]1CC[C@@H](C)C[C@@]1(O)C(=O)NCCO` [Example 110, (1S,2S,5R)-1-hydroxy-N-(2-hydroxyethyl)-2-isopropyl-5-methylcyclohexane-1-carboxamide] are 639 nM, greater than 10000 nM and 1640 nM.
As for `COC[C@H](NC(=O)[C@]1(O)C[C@H](C)CC[C@H]1C(C)C)C(O)c1ccccc1` (stereo in doubt) [Example 122, (1S,2S,5R)-1-hydroxy-N-[(1S,2S)-2-hydroxy-1-(methoxymethyl)-2-phenyl-ethyl]-2-isopropyl-5-methyl-cyclohexanecarboxamide], the values for the EC50 at pig TRPM8 [1] and at human TRPM8 [3] were 749 nM and 7510 nM, respectively.
